Experimental data reported in ChEMBL document CHEMBL4311946, “Mechanistic Insight on the Mode of Action of Colletoic Acid” (J Med Chem, 2019).
Active and inactive are the calls of the source. The rule behind the calls is not given here.

Legend:
[1] = molecular target: T1, 11-beta-hydroxysteroid dehydrogenase type 2 (Homo sapiens, UniProt P80365); experiment: Inhibition of 11beta-HSD2 (unknown origin) expressed in HEK293 cells using cortisone as substrate measured after 2 hrs in presence of NAD+ by HTRF assay; format: ADME, cell-based
T1 sequence (P80365 whole entry): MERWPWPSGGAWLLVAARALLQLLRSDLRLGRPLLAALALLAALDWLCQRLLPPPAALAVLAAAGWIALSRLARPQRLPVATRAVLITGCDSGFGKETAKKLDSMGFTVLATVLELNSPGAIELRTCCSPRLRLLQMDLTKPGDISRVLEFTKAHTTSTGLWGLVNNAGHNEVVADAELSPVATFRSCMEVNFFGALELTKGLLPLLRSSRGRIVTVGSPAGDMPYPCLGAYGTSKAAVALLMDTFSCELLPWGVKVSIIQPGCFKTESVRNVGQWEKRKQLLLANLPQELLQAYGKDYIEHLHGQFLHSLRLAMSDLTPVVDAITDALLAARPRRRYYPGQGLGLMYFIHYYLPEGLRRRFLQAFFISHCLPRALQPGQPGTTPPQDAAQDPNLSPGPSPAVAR

[2] = tested on: 3T3-L1; experiment: Cytotoxicity against mouse 3T3L1 cells measured after 72 hrs by celltiter-glo luminescent cell viability assay; format: ADME, cell-based; conditions: 3T3-L1, 72 h
[3] = Half life in mouse liver microsomes; format: ADME, Microsome
[4] = Stability in mouse plasma; format: ADME, cell-free
[5] = molecular target: 11-beta-hydroxysteroid dehydrogenase 1 (Homo sapiens, UniProt P28845, C272S); experiment: Inhibition of N-terminal MKHQHQHQHQHQHQQPL-tagged 11beta-HSD1 C272S mutant (unknown origin) expressed in Escherichia coli BL21 (DE3) using cortisol as substrate measured for 1 hr in presence of NADPH by fluorescence assay
11-beta-hydroxysteroid dehydrogenase 1, sequence (P28845 whole entry C272S): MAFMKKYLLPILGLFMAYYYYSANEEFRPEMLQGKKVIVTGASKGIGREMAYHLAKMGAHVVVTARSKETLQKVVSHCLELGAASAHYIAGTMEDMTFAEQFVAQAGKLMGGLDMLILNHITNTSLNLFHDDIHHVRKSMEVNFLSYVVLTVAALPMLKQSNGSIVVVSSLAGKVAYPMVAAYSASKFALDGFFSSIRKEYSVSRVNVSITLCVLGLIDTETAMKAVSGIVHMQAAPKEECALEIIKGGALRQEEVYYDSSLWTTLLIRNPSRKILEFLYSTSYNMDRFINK

[6] = Half life in human liver microsomes; format: ADME, Microsome
[7] = Half life in simulated gastric fluid; format: ADME
[8] = Half life in human plasma; format: ADME, cell-free
[9] = molecular target: T2, Peroxisome proliferator-activated receptor gamma (Homo sapiens, UniProt P37231); experiment: Antagonist activity at human PPARgamma expressed in 293H cells assessed as reduction in rosiglitazone-induced transcriptional response preincubated for 30 mins followed by rosiglitazone addition and measured after 16 hrs by reporter gene-based FRET assay; format: cell-based
T2 sequence (P37231 whole entry): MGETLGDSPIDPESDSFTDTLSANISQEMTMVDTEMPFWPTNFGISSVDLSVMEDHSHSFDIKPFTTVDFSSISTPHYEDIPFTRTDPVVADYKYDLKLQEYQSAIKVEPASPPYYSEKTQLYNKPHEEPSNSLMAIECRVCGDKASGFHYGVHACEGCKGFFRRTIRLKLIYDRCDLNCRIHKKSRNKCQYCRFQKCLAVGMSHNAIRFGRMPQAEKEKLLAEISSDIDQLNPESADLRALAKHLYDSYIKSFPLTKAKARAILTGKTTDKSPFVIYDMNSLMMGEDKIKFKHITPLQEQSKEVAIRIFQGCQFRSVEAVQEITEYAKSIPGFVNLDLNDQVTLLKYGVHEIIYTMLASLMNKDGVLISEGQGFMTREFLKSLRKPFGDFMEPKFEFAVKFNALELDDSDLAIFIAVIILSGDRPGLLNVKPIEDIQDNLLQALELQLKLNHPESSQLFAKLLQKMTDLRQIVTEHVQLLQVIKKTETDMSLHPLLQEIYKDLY

[10] = tested on: 3T3-L1; experiment: Inhibition of cell differentiation in mouse 3T3L1 cells assessed as reduction in pre-adipocyte differentiation into matured adipocytes at 50 uM incubated for 48 hrs under induction medium containing dehydrocorticosterone/cortisone followed by shifting to differentiation medium and measured after 7 days by Oil red O staining-based microscopic analysis; format: functional

Compound	IC50 [1]	t1/2 [3]	Stability [4]	IC50 [5]	Ki [5]	t1/2 [6]	half-life [7]	half-life [8]	EC50 [9]	EC50 [2]	inhibition [10]
O=C(Nc1ccccc1)c1cc([N+](=O)[O-])ccc1Cl									0.002 µM		
CC1=CC[C@@]2(C[C@@H]1O)[C@@H](C(N)=O)CC[C@H]2C(C)C	> 500 µM			> 500 µM	> 500 µM					> 500 µM	
CC(=O)O[C@H]1C[C@]2(CC=C1C)[C@@H](C(=O)O)CC[C@H]2C(C)C	> 500 µM			178 µM						> 500 µM	
CC1=CC[C@@]2(C[C@H]1O)[C@@H](C(C)C)CC[C@H]2C(=O)O	> 500 µM			80.3 µM						> 500 µM	
CC(C)[C@@H]1CC[C@H](C(=O)O)[C@]12C[C@@H](O)[C@@](C)(O)[C@@H](O)C2	> 500 µM			> 500 µM	130 µM					> 500 µM	
CC(=O)O[C@@H]1C[C@@](C)(O)CC[C@]12[C@@H](C(=O)O)CC[C@H]2C(C)C	> 500 µM			> 500 µM	289 µM					> 500 µM	
CC1(C)[C@@H](OC(=O)CCC(=O)O)CC[C@]2(C)[C@H]3C(=O)C=C4[C@@H]5C[C@@](C)(C(=O)O)CC[C@]5(C)CC[C@@]4(C)[C@]3(C)CC[C@@H]12 [CARBENOXOLONE]										> 500 µM	
CC1=CC[C@@]2(CC1=O)[C@@H](C(=O)O)CC[C@H]2C(C)C	> 500 µM	2.23 h	Stable	42.4 µM	5.15 µM	6.8 h	> 6 h	> 48 h		> 500 µM	

Continued, in another order:

IC50 [1]	t1/2 [3]	Stability [4]	IC50 [5]	Ki [5]	t1/2 [6]	half-life [7]	half-life [8]	EC50 [9]	Compound	EC50 [2]	inhibition [10]
> 500 µM	0.3 h	Stable	27.2 µM	4.63 µM	1.29 h	> 6 h	> 48 h		CC1=CC[C@@]2([C@H](O)C1)[C@@H](C(=O)O)CC[C@H]2C1CCCCC1	> 500 µM	
> 500 µM			71 µM						C=C1CC[C@@]2(C[C@@H]1OC(C)=O)[C@@H](C(=O)O)CC[C@H]2C(C)C	> 500 µM	
> 500 µM			379 µM	57.6 µM					C[C@]1(O)CC[C@@]2(C[C@@H]1O)[C@@H](C(=O)O)CC[C@H]2C1CCCCC1	> 500 µM	
> 500 µM			38.3 µM						C=C1CC[C@@]2(C[C@@H]1O)[C@@H](C(=O)O)CC[C@H]2C(C)C	> 500 µM	
> 500 µM			55.1 µM	8.23 µM					CC1=CC[C@@]2([C@H](O)C1)[C@@H](C(=O)O)CC[C@H]2C(C)C	> 500 µM	
> 500 µM			> 500 µM	> 500 µM					COC(=O)[C@H]1CC[C@@H](C(C)C)[C@@]12CC=C(C)[C@@H](O)C2	> 500 µM	
> 500 µM			162 µM						C=C1CC[C@]2(C[C@@H]1O)[C@H](C)CC[C@@H]2C(=O)O	> 500 µM	
> 500 µM			> 500 µM						CC1=CC[C@@]2(C[C@@H]1O)[C@H](C(=O)O)CC[C@H]2C(C)C	> 500 µM	
> 500 µM			> 500 µM	145 µM					C=C1CC[C@@]2(C(OC)[C@@H]1O)[C@@H](C(=O)O)CC[C@H]2C(C)C (stereo not given in full)	> 500 µM	
> 500 µM	0.27 h	Stable	2.2 µM		0.93 h	> 6 h	> 48 h		CC1=CC[C@@]2(C=C1)[C@@H](C(=O)O)CC[C@H]2C1CCCCC1	> 300 µM	Active
> 500 µM	0.13 h	Stable	1.34 µM	0.21 µM	0.3 h	> 6 h	> 48 h		CC1=CC[C@@]2(C[C@@H]1O)[C@@H](C(=O)O)CC[C@H]2C1CCCCC1	> 500 µM	Active
